Measured values taken from US20210308143A1, “COMPOSITIONS AND METHODS FOR REDUCING BODY FAT” (Topokine Therapeutics, Inc., priority 2006, published 2021).
“Also recorded” adds a separate entry of the source.

Assays:
[1] = tested on: 3T3-L1 preadipocytes and mature adipocytes; assay: MTS test for cell viability; assay type: cell-based, mouse
Method: (§1) Preparation of preadipocytes. 3T3-L1 mouse embryo fibroblasts are obtained and cultured. Cells are cultured at 37° C. in a humidified 5% CO2 atmosphere and grown in Dulbecco's modified Eagle's medium (DMEM) with 10% bovine calf serum. Confluency is induced for 2 days (Days −1 and 0) and preadipocytes are cultured in DMEM with 10% fetal bovine serum (FBS/DMEM) medium, supplemented with 167 nM insulin, […] isobutylmethylxanthine, and 1 μM dexamethasone for 2 days (Days 1 and 2).
Preparation (induction) of mature adipocytes from preadipocytes. Preadipocytes prepared as above are then maintained in a culture medium with 167 nM insulin supplement for another 2 days (Days 3 and 4), followed by culturing with 10% FBS/DMEM medium for an additional 4 days (Days 5-8), at which time >90% of the cells are expected to have differentiated and matured into adipocytes with accumulated fat droplets. All media contains 100 U/mL penicillin, 100 μg/mL streptomycin, and 292 μg of L-glutamine/mL. […]
Test for cell viability. […] The plate is analyzed by spectrometry at a wavelength of 490 nm, which is an absorbance peak for formazan. The quantity of formazan as measured by absorbance at 490 nm is a directly proportional to the number of viable cells.

[2] = tested on: mature adipocytes (from 3T3-L1); assay: Laser scanning cytometry (annexin V/PI) test for apoptosis; assay type: cell-based, mouse; details: 24 hours
Method: as §1
(§2) Preparation (induction) of mature adipocytes from preadipocytes. Preadipocytes prepared as above are then maintained in a culture medium with 167 nM insulin supplement for another 2 days (Days 3 and 4), followed by culturing with 10% FBS/DMEM medium for an additional 4 days (Days 5-8), at which time >90% of the cells are expected to have differentiated and matured into adipocytes with accumulated fat droplets. All media contains 100 U/mL penicillin, 100 μg/mL streptomycin, and 292 μg of L-glutamine/mL.
All experiments, except where otherwise indicated, are performed with bimatoprost added to the culture medium for a final concentration of 0%, 0.003%, 0.03%, or 0.3% for a duration of 3, 6, 12, or 24 hours [with 1:1000 dimethyl sulfoxide (DMSO)]. […]
Test for apoptosis (1). […] Apoptotic cells fluoresce and are detected by LSC, since AV binds specifically to phosphatidylserine in the disrupted plasma membrane. […]

[3] = tested on: 3T3-L1 preadipocytes and mature adipocytes; assay: TUNEL imaging test for apoptosis; assay type: cell-based, mouse
Method: as §1, §2
Test for apoptosis (2). Terminal Deoxynucleotidyl Transferase dUTP Nick-End Labeling (TUNEL) Imaging is one of the most common assays for apoptosis. […] Apoptosis manifests as fluorescence upon microscopic examination, which reflects the antibody-labeled BrdU incorporated at the cleaved portions of DNA.

[4] = tested on: 3T3-L1 preadipocytes; assay: Oil-Red-O test for differentiation of preadipocytes into mature adipocytes; assay type: cell-based, mouse
Method: as §1, §2
Test for differentiation of preadipocytes into mature adipocytes. Oil-Red-O, a specific lipid stain, is used to test the effect of bimatoprost on adipogenesis. […] For each dish, multiple images are taken and analyzed for average lipid droplet size, percentage lipid area, and total droplet number with software. […]

[5] = tested on: laboratory rodents (hairless rats or nude mice); assay: In vivo rodent study, daily topical ointment on abdominal skin; details: daily topical ointment 0.003-0.3%, six months
Method: Animal preparation. Genetically uniform laboratory rodents (for example, hairless rats or nude mice) are used. They are adult laboratory rodents similar in size at the commencement of the study (approximately postnatal week 15 for rats). Multiple animals are tested. Animals randomized to bimatoprost are housed separately from control animals but are kept in the same room under identical environmental conditions. All animals are fed a standard diet, appropriate for the species, ad libidum.
Method. In all cases the vehicle is a compatible ointment, such as petrolatum, with a final bimatoprost concentration of 0%, 0.003%, 0.03%, or 0.3%. A fixed amount of ointment, for example 1 gram, is applied daily in a thin film over a uniform surface area of the abdominal skin of each animal. Each animal is randomized to a daily application of a dose of topical bimatoprost or vehicle alone. On a weekly basis, total body mass of each animal is determined on a scale. Total body fat is estimated by any of the several methods established for this purpose, for example, water displacement (Dahms et al. (1982) J NUTR. 112: 398-400), isotopic dilution (Culebras et al. (1977) J. PHYSIOL. 232: R60-65), Total Body Electrical Conductance (TOBEC) (Baer et al. (1993) PHYSIOL. BEHAV. 53: 1195-99), Dual-Energy X-Ray Absorptiometry (DEXA) (Bertin et al. (1998) J NUTRITION 128: 1550-54), or Nuclear Magnetic Resonance (NMR) (Kunnecke et al. (2004) OBES RES. 12: 1604-151. Animals are maintained and monitored in this fashion for six months, at which point they are sacrificed.
Analysis and Results. Abdominal fat pads of the sacrificed animals are excised and measured directly for mass and volume. Direct carcass analysis with chemical extraction may be further performed (Frisch et al. (1977) PNAS 74: 379-383). All results are normalized with reference to baseline values and then compared between bimatoprost and control groups.

[6] = tested on: human subjects; assay: In vivo human randomized double-blind study, topical ointment over triceps; details: daily petrolatum ointment 0.003-0.3%, 6 months
Text: Multiple human subjects (both male and female), for example, with body mass indices of 30 or more but otherwise healthy, are entered into a randomized double-blind study. Either the left or the right arm is randomized to receive topical bimatoprost; the other arm receives vehicle only. Bimatoprost is supplied in a petrolatum-based ointment (the vehicle) at a final concentration of 0%, 0.003%, 0.03% or 0.3%. Ointment containers are unlabeled as to the presence or concentration of bimatoprost. Each day, subjects apply a thin film of ointment to the skin over the respective triceps while wearing new, clean surgical gloves. Subjects are instructed to refrain from washing the treated area for at least 8 hours and are instructed to refrain from wearing tight clothing or occlusive dressings that will come into contact with the treated area. Body fat calipers are used to measure fat in the triceps region bilaterally on a weekly basis. The study continues for 6 months. […] As a result, this contemplated outcome will show, in vivo, that compounds according to the present invention, including bimatoprost, can reduce fat.

[7] = tested on: human patients; assay: Clinical application examples (Examples 4-8), local bimatoprost to reduce fat deposits; assay type: in vivo; details: for fat pad between shoulders / fatty deposits on cheeks: daily ointment to face and between shoulders
Text: In light of the foregoing description, the specific non-limiting examples presented below are for illustrative purposes and not intended to limit the scope of the invention in any way. In Examples 4-8, various modes of non-systemic administration of a cyclopentane heptanoic acid, 2-arylalkyl or cycloalkyl compound or derivative thereof can be used, for example, by topical application (ointment, cream, or transdermal patch), subcutaneous injection, intramuscular injection, or intralesional injection, any of which may involve a controlled (or sustained) release formulation or depot. In addition to medical therapy, the person's physician recommends a regimen of diet and exercise. After six months the person is unable to lose weight. The physician prescribes daily topical application of a bimatoprost ointment to the abdomen as treatment for central obesity. […] The person's physician prescribes a daily application of a bimatoprost ointment to the face and between the shoulders as treatment for the fat deposits. […] The person's physician prescribes a daily application of a bimatoprost ointment to the face and between the shoulders as treatment for the fat deposits. […] The plastic surgeon prescribes a daily application of a bimatoprost ointment to the hips and thighs as treatment for the fat deposits. […] The doctor prescribes an ophthalmic preparation of bimatoprost daily to both eyes as a treatment for the proptosis and exposure symptoms.

[8] = tested on: human eye; details: eyedrops, glaucoma, cited from earlier work
[9] = preadipocytes and/or mature adipocytes
[10] = Example 4, obese person, daily ointment to abdomen
[11] = Example 5, Cushing syndrome secondary to prednisone
[12] = Example 6, HIV-related lipodystrophy
[13] = Example 8, Grave's disease orbitopathy, ophthalmic preparation daily to both eyes

In the case of CCNC(=O)CCC/C=C\C[C@@H]1[C@@H](/C=C/[C@@H](O)CCc2ccccc2)[C@H](O)C[C@@H]1O [bimatoprost, cyclopentane N-ethyl heptenamide-5-cis-2-(3α-hydroxy-5-phenyl-1-trans-pentenyl)-3,5-dihydroxy, [1α, 2β, 3α, 5α]], the “absorbance at 490 nm on MTS testing, treated cells compared to control cells” value ([1]; bimatoprost 0.003%, 0.03% or 0.3%, up to 24 hours, vs DMSO control) is reported as “lower absorbance at 490 nm”, the “rates of viability compared to control samples” value [1, 9] is reported as “lower rates of viability” and the “AV-labeled and/or PI-labeled cells on laser scanning cytometry compared to control samples” value [2] is reported as “more AV-labeled and/or PI-labeled (apoptotic or dead) cells”. The “BrdU-antibody-labeled cells on TUNEL imaging compared to control samples” value ([3]; preadipocytes and mature adipocytes, 24 hours) was “more BrdU-antibody-labeled (fluorescent) cells”, the “rates of apoptosis compared to control samples” value [3, 9] was “higher rates of apoptosis” and the “lipid droplets on Oil-Red-O staining compared to control samples” value ([4]; bimatoprost 0.003%, 0.03%, and 0.3% μM added with induction medium) was “smaller and fewer lipid droplets”. The “rates of differentiation into mature adipocytes compared to control samples” value ([4]; preadipocytes) was “lower rates of differentiation into mature adipocytes”, the “subcutaneous (abdominal) fat mass compared to control animals” value [5] was “lower subcutaneous (abdominal) fat mass” and the “total body fat mass compared to control animals” value [5] was “lower total body fat mass”. The “total body mass compared to control animals” value [5] was “lower total body mass”, the “fat in treated body area (triceps, calipers) compared to vehicle-treated area” value [6] was “lower fat” and the BMI [7, 10] was “BMI is reduced”. For the same molecule, the abdominal fat deposits [7, 10] was “abdominal fat deposits are reduced”, the “fat pad between shoulders” value [7, 11] was “fat pad between their shoulders is reduced” and the “fatty deposits on cheeks” value [7, 11] was “fatty deposits on the person's cheeks are reduced”. The “fat pad between shoulders” value [7, 12] was “fat pad between their shoulders is reduced”, the “fatty deposits on cheeks” value [7, 12] was “fatty deposits on the person's cheeks are reduced” and the “fatty deposits on hips and/or thighs” value ([7]; Example 7, daily ointment to hips and thighs) was “fatty deposits on the person's hips and/or thighs are reduced”. For the same molecule, the “condition (proptosis and exposure symptoms)” value [7, 13] was “their condition improves”, the orbital fat [7, 13] was “orbital fat is reduced” and the unwanted side-effects ([8]; Peplinski et al. (2004)) was “periocular pigmentary changes involving the eyelid; also recorded: deepening of the lid sulcus”. For the same molecule, the intraocular pressure [8] was “decrease intraocular pressure”.
